From patent US11040981B2, “Pyrrolotriazine compounds and methods of inhibiting TAM kinases” (Syros Pharmaceuticals, Inc., priority 2017, dated 2021)
Counter-ions that a name gives are not always drawn.

Legend:
Type in all cases: biochemical
FLT3 = biological target: T1, FLT3 (Homo sapiens, UniProt P36888); assay: TR-FRET kinase activity assay, FLT3; details: ATP at Km, 60 minutes
T1 sequence (P36888 27-993): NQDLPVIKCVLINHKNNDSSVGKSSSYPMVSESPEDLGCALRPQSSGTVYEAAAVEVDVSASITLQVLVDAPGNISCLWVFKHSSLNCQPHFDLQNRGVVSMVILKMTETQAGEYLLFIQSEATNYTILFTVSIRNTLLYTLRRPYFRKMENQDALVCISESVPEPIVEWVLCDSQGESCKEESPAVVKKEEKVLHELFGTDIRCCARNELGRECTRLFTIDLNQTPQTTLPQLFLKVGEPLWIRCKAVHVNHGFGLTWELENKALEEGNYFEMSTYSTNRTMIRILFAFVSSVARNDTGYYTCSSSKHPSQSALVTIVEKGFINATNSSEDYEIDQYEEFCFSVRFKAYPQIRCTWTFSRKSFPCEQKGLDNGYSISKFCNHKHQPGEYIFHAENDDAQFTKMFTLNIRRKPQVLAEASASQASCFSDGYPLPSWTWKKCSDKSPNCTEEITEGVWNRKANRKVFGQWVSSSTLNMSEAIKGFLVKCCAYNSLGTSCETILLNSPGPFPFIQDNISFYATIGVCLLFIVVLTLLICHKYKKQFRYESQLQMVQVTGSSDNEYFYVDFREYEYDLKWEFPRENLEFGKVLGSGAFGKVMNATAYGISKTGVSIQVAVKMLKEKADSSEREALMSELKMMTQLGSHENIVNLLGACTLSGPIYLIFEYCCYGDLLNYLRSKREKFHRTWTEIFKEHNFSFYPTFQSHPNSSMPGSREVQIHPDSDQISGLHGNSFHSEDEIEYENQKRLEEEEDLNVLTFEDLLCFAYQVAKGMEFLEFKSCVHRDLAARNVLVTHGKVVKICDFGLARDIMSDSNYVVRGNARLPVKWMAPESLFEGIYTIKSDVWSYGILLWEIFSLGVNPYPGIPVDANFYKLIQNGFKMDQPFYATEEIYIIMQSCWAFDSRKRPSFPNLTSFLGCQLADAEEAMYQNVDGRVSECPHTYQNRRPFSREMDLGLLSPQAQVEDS
Description: (§1) IC50 values for compound inhibition of AXL, FLT3, MERTK and TYRO3 activity were determined by using a TR-FRET activity assay. A polypeptide substrate with a fluorescent label is phosphorylated on a tyrosine by each enzyme, where the now phosphorylated product is bound by a Europium-labeled antibody specific to that phosphorylation site. The proximity between the antibody and the substrate gives a signal known as TR-FRET. As the enzyme is inhibited by compound, less phosphorylated peptide product is made causing a decrease in overall signal.
(§2) Activity assays were performed in a 384-well, small volume, black microplates in an active enzyme volume of 10 μL and final developed volume of 20 μL. Final assay conditions are 50 mM HEPES pH 7.5, 10 mM MgCl2, 1 mM EGTA, 0.01% Brij 35 and 1 mM DTT all at RT. Enzyme, substrate labeled peptide and compound are mixed, and then the reaction is initiated with the addition of ATP at Km concentration for each enzyme. The reaction is allowed to run 60 minutes and then quenched with a 12.5 mM EDTA (ethylenediamine tetraacetic acid) solution. The plate is then developed with the addition of Europium labeled antibody for a final volume of 20 μL and is then incubated for 30 minutes in darkness. Plates are read in a Pherastar plate reader. Data is analyzed in GraphPad PRISM.
(§3) The results of these assays are shown in Table 1, below, wherein “No.” designates compound number (FIG. 1); “A” represents a value of ≤100 nM; “B” a value of >100 nM and ≤1 μM; “C” a value of >1 μM and ≤10 μM; “D” a value of >10 μM; “ND” is not determined. The ratio of Mer to FLT3 is calculated as follows: FLT3 IC50/Mer IC50. “+” represents a ratio of >2.0 and <10; “++” represents a ratio of between 10 and 100; and “+++” represents a ratio of >100.

MERTK = biological target: T2, MERTK (Homo sapiens, UniProt Q12866); assay: TR-FRET kinase activity assay, MERTK; details: for IC50: TR-FRET activity assay, ATP at Km, 60 minutes, read-out: Mer IC50; for FLT3/Mer ratio (FLT3 IC50/Mer IC50): ratio of Mer to FLT3: FLT3 IC50/Mer IC50
T2 sequence (Q12866 21-999): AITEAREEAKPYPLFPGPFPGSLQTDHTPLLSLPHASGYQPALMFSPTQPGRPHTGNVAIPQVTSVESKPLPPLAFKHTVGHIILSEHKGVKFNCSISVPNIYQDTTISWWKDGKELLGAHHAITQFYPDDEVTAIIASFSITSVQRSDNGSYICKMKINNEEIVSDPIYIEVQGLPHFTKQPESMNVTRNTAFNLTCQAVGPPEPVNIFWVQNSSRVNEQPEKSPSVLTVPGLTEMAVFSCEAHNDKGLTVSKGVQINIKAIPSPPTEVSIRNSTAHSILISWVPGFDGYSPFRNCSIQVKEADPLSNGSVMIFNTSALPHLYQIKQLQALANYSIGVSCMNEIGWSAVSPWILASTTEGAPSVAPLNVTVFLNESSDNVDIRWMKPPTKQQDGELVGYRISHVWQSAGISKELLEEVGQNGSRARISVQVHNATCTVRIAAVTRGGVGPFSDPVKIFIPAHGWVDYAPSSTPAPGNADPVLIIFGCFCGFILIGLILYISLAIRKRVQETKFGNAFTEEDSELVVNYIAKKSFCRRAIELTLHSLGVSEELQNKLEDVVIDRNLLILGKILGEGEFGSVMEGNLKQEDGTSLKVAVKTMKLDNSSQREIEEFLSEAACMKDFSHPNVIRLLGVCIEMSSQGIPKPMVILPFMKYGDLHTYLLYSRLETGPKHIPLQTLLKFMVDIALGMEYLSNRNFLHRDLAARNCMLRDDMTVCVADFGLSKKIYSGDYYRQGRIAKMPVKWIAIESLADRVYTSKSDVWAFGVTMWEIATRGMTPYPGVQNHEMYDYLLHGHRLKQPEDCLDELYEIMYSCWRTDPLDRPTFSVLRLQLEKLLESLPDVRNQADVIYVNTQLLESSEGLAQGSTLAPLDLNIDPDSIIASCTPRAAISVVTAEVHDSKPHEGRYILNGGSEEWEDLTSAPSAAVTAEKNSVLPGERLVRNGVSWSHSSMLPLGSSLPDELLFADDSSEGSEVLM
Description: as §1, §2, §3

AXL = biological target: T3, AXL (Homo sapiens, UniProt P30530); assay: TR-FRET kinase activity assay, AXL; details: ATP at Km, 60 minutes
T3 sequence (P30530 26-894): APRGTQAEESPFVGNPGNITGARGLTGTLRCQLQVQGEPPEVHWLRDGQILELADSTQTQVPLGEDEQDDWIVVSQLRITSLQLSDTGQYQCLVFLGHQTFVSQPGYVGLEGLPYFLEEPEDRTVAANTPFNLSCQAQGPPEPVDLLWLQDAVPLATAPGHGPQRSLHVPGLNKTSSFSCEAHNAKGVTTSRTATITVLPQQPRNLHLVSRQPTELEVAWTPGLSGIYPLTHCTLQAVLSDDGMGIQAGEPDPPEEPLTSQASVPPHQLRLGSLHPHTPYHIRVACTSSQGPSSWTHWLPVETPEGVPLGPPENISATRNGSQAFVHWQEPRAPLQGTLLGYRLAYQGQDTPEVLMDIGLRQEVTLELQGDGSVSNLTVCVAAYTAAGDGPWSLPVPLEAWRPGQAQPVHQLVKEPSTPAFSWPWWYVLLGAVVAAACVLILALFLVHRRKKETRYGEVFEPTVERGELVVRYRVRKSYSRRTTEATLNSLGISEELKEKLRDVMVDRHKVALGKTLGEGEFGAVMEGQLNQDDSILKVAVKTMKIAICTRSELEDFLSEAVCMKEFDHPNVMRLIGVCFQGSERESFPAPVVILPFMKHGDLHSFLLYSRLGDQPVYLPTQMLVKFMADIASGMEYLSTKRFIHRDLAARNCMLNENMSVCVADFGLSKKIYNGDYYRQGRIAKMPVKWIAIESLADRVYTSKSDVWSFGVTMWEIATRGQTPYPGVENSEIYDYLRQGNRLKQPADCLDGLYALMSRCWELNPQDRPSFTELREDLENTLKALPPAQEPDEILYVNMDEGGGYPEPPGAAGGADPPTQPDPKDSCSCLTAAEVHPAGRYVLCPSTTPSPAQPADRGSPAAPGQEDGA
Description: as §1, §2, §3

| IC50 (FLT3) | IC50 (MERTK) | IC50 (AXL) | Structure (SMILES) | FLT3/Mer ratio (FLT3 IC50/Mer IC50) (MERTK) |
| --- | --- | --- | --- | --- |
| > 10000 nM | 100 to 1000 nM | > 10000 nM | CCCCCC(C)Nc1ncc2c(Nc3ccc(F)cc3)cc(C3CCC(O)CC3)n2n1 [Compound 106, (1S,4r)-4-(5-((4-fluorophenyl)amino)-2-((S)-heptan-2-ylamino)pyrrolo[2,1-f][1,2,4]triazin-7-yl)cyclohexanol hydrochloride] | ++ (“++” represents a ratio of between 10 and 100) |
| 100 to 1000 nM | ≤ 100 nM |  | COC[C@H](C)Nc1ncc2c(-c3cnn(C[C@@H]4CC(=O)N(C)C4)c3)cc([C@H]3CC[C@H](O)CC3)n2n1 [Compound 476] |  |
| 1000 to 10000 nM | 1000 to 10000 nM | > 10000 nM | CCCCC[C@H](C)Nc1ncc2c(C(=O)Nc3ccc(F)cc3)cc(C3CCC(O)CC3)n2n1 (stereo partly drawn) [Compound 111, N-(4-fluorophenyl)-7-(4-hydroxycyclohexyl)-2-[[(1S)-1-methylhexyl]amino]pyrrolo[2,1-f][1,2,4]triazine-5-carboxamide] | + (“+” represents a ratio of >2.0 and <10) |
| ≤ 100 nM | ≤ 100 nM | ≤ 100 nM | CCCCNc1ncc2c(-c3ccc(S(=O)(=O)N4CCOCC4)cc3)cc([C@H]3CC[C@H](O)CC3)n2n1 [Compound 101] | + (“+” represents a ratio of >2.0 and <10) |
